The text below walks through data of patent US8592172B2, “Bioluminescent assays using cyanobenzothiazole compounds” (Promega Corporation, priority 2010, dated 2013).

Data set [1] has as its system CYP1A2. As to the kind of experiment: Non-lytic assay with rat hepatocytes, compound 3019. Format: cell-based. Conditions: 10 nM TCDD 48 hours, 3 μM compound 3019.
Data set [2] has as its system CYP450 1A2 activity in human liver microsomes. As to the kind of experiment: Human liver microsome assay with compound 3019. Here is the method: (§1) Equal volumes of P450-Glo LDR with 6.6 mM D-Cysteine was added into the CYP450 reactions.
In general terms: Microsomes from liver hold many membrane-bound enzymes, among them those of drug oxidation.

Data set [3] addresses Human recombinant CYP450 1A2 (Homo sapiens, UniProt P05177). Here is the method: as §1
For data set [4], the system named is CYP1A2. As to the kind of experiment: Non-lytic cell-based assay with human hepatocytes, compound 3019. Conditions: non-lytic, 3 μM compound 3019, 1 hour. Here is the method:
Human cryopreserved hepatocytes (Celsis lot RTM) were thawed and seeded in hepatocyte culture medium in wells of a collagen-coated, 96-well culture plate at ˜70,000 cells per well and kept at 37° C. in standard cell culture incubator with 5% CO2. The cells were then treated for 48 hours with 100 μM omeprazole or vehicle control (0.1% dimethylsulfoxide) dissolved in hepatocytes culture medium (n═3 for each treatment, mean values and standard deviations are shown). […] 50 μl of the KH incubation buffer was then removed from each well and transferred to a well of a white, 96-well luminometer plate (Costar) where it was also combined with 50 μl of P450-Glo LDR containing 6.6 mM D-cysteine.

Sequence of Human recombinant CYP450 1A2 (P05177 whole entry): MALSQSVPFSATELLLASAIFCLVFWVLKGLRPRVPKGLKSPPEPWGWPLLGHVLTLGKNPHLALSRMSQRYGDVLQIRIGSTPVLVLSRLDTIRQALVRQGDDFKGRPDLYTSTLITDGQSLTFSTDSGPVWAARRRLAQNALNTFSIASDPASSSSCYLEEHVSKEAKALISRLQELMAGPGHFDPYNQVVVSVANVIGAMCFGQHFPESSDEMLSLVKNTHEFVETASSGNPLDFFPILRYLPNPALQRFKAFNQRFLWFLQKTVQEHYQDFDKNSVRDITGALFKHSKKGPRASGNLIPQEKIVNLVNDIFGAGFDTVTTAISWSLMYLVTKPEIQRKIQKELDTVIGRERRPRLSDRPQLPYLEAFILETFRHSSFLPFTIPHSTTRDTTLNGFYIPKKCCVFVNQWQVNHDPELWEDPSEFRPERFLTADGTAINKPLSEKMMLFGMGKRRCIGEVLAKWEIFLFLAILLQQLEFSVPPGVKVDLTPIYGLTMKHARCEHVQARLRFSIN

For the compound `Clc1cc2c(cc1Cl)Oc1cc(Cl)c(Cl)cc1O2` [TCDD, 2,3,7,8-tetrachlorodibenzo-p-dioxin], in the data set with CYP1A2 [1], the “change of basal signal (CYP1A2 induction)” value is listed as “significantly increased”.

Turning to `CC(C)OC(OC(C)C)C1CSC(c2nc3ccc(O)cc3s2)=N1` (stereo not shown) [Compound 3019], the “activity with compound 3019 in human liver microsomes” value in data set [2] is “substantial activity”. Also, the “substrate status for CYP450 1A2” value in data set [3] was “is indeed a CYP450 1A2 substrate”. Moreover, the “entry of substrate into cells” value in the data set on CYP1A2 [4] is “entered the cell”.
